Patent US20210371899A1, “METHOD AND KIT FOR […], AND PLASMID, BACULOVIRUS, CELL AND METHOD OF PREPARING THE SAME FOR PESTICIDE DETECTIONS” (priority 2018, published 2021)
Like-named read-outs stand apart in the source and are kept apart here.

Columns and labels:
[1] = target: T1, AChE-FL (full-length AChE Y408F displayed on Hi5 cells) (Drosophila melanogaster, UniProt P07140, R99G/Y408F); test: Inhibition of cell-surface displayed AChE-FL (Ellman's method, ATCh/DTNB, 412 nm); format: biochemical
T1 construct: honeybee mellitin signal peptide (HM) (N); expressed in transfected cells; host or cells: Trichoplusia ni High Five (Hi5) cells infected with recombinant baculovirus vAChE-FL, lyophilised in the plate
Procedure: (§1) Hi5 cells were infected with AChE-FL-bac (FL), AChE-6MC-bac (6MC) or WT-bac (WT) respectively, for 3 days. After the removal of media, the cells were subjected to a 5-hour lyophilization in the 96-well plates. Two OP and two CB insecticide compounds were serial-diluted and added to the infected cell samples, as well as a 100 mU/mL AChE (ST, Abcam) in 96-well plates and the commercialized AChE (Sichen) in cuvette for a further comparison. AChE activities were analyzed for all these sample in order to determine the sensitivities of these AChE to different insecticides. DMSO with different concentrations in DPBS were added to determine the background effects. Pesticides tested are: (a) paraoxon ethyl, (b) malaoxon, (c) carbofuran (d) carbaryl.
(§2) AChE activity was determined by Ellman's method. For each 96-well, 50 μl of 3 mM ATCh and 50 μl of 3 mM Ellman's reagent DTNB solution was added. After 10 minutes of incubation at room temperature, average absorbance at 412 nm was determined. […] The diluted solutions were then added individually into 96-well microplates with Hi5 cells infected by the seven recombinant viruses (vDmAChE, vHsAChE, vRnAChE, vAmAChE, vSfAChE, DamAChE, and vBdAChE). After incubation for 10 minutes, substrate ATCh and DTNB solution were added to the reaction mixture. After 10 minutes of incubation at room temperature, residual activity was determined with a microplate reader at 412 nm.
(§3) The acetylcholinesterase stock solution was diluted into 50 units/mL in assay buffer at ratio 1:50 to generate 1000 mU/mL acetylcholinesterase standard solution. Then, the 1000 mU/mL acetylcholinesterase standard solution was further diluted into 300, 100, 30, 10, 3, 1 and 0 mU/mL for determining the average absorbance of each standard. The reading of each standard was plotted as a function of the amount of acetylcholinesterase to establish a standard curve, and the corresponding amount of AChE in each test samples was calculated by the derived linear equation. […]
(§4) The remaining activity of AChE is evaluated by the following equation: […]
(§5) In which, ΔA0 indicates the change of absorbance of the positive control, and ΔAS indicates the change of absorbance of the applied pesticide incubated solution.
(§6) As for a comparison, the test results using the most common AChE insecticide diagnostic kit in Taiwan sold by Sichen Inc. were also included, and the IC50 for all of the test samples were also calculated (Table 1). For Sichen, since they acquire the AChE from fly, also they have to use cuvette (1 mL) for measurement, thus high quantity of AChE should be used. […] 96-well plate was applied, which requires only 100 μL solution for detection, and easily to handle, and can be read by bare eye for the detection of residue pesticides.

[2] = target: T2, AChE-6MC (truncated AChE Y408F fused with TM and CTD of baculovirus GP64, displayed on Hi5 cells) (Drosophila melanogaster, UniProt P07140, R99G/Y408F); test: Inhibition of cell-surface displayed AChE-6MC (Ellman's method, ATCh/DTNB, 412 nm); format: biochemical
T2 construct: honeybee mellitin signal peptide (HM) (N); expressed in transfected cells; host or cells: Trichoplusia ni High Five (Hi5) cells infected with recombinant baculovirus vAChE-6MC, lyophilised in the plate
Procedure: as §1, §2, §3, §4, §5, §6

AChE (Abcam) = AChE (Abcam) (UniProt O42275); test: Inhibition of purified standard AChE (Abcam); format: biochemical
Procedure: AChE activity was determined by Ellman's method. For each 96-well, 50 μl of 3 mM ATCh and 50 μl of 3 mM Ellman's reagent DTNB solution was added. After 10 minutes of incubation at room temperature, average absorbance at 412 nm was determined. […] The diluted solutions were then added individually into 96-well microplates with Hi5 cells infected by the seven recombinant viruses (vDmAChE, vHsAChE, vRnAChE, vAmAChE, vSfAChE, DamAChE, and vBdAChE). […] After 10 minutes of incubation at room temperature, residual activity was determined with a microplate reader at 412 nm.

[3] = target: commercialized AChE (Sichen) (Musca domestica, UniProt Q7YWJ9); test: Inhibition of commercial AChE kit (Sichen), cuvette; format: biochemical, fly
Procedure: as §1
Acetylcholinesterase Assay Kit (standard AChE) was purchased from Abcam. Rapid Bioassay of Pesticides Residues Reagent Kit (commercial AChE) was purchased from Sichen.
The acetylcholinesterase stock solution was diluted into 50 units/mL in assay buffer at ratio 1:50 to generate 1000 mU/mL acetylcholinesterase standard solution. Then, the 1000 mU/mL acetylcholinesterase standard solution was further diluted into 300, 100, 30, 10, 3, 1 and 0 mU/mL for determining the average absorbance of each standard. The reading of each standard was plotted as a function of the amount of acetylcholinesterase to establish a standard curve, and the corresponding amount of AChE in each test samples was calculated by the derived linear equation. To calculate the inhibition of AChEs activity (%), vCont-Bac infected cells (without expression of AChE on the surface) served as the negative control, whereas Abcam purified protein, Sichen commercial protein, vAChE-FL and vAChE-6MC infected cells without pesticide incubation served as the positive control. The activity of the positive control was considered 100%.
The remaining activity of AChE is evaluated by the following equation:
Inhibition of AChEs activity (%)(ΔA0−ΔAS)/ΔA0)×100
as §5
As for a comparison, the test results using the most common AChE insecticide diagnostic kit in Taiwan sold by Sichen Inc. were also included, and the IC50 for all of the test samples were also calculated (Table 1). For Sichen, since they acquire the AChE from fly, also they have to use cuvette (1 mL) for measurement, thus high quantity of AChE should be used. […] In the present application, however, there are no need for fly rearing and no need for AChE purification. 96-well plate was applied, which requires only 100 μL solution for detection, and easily to handle, and can be read by bare eye for the detection of residue pesticides.

[4] = read-out: IC50 of OP and CB towards AChEs, Abcam; 100 mU/mL purified AChE standard, 96-well plate
[5] = Hi5 cells infected with vAChE-FL, 3 days, lyophilized 5 h, 96-well plate, read-out: IC50 of OP and CB towards AChEs, AChE-FL
[6] = Hi5 cells infected with vAChE-6MC, 3 days, lyophilized 5 h, 96-well plate, read-out: IC50 of OP and CB towards AChEs, AChE-6MC
[7] = commercialized AChE kit, cuvette (1 mL), read-out: IC50 of OP and CB towards AChEs, Sichen

Row | SMILES | IC50 [1] | IC50 [2] | IC50 (AChE (Abcam); [4]) | IC50 [3] | IC50 [1, 5] | IC50 [2, 6] | IC50 (AChE (Abcam); 100 mU/mL purified AChE standard, 96-well plate; read-out: IC50 of OP and CB towards AChEs, Abcam) | IC50 [3, 7]
1 | CNC(=O)Oc1cccc2ccccc12 [Carbaryl, carbaryl] | 6800 nM | 650 nM | 6500 nM | 5900 nM | – | – | – | –
2 | CNC(=O)Oc1cccc2c1OC(C)(C)C2 [Carbofuran, carbofuran] | – | – | – | – | 48000 nM | 4500 nM | 540 nM | 2800 nM
3 | CCOC(=O)CC(SP(=O)(OC)OC)C(=O)OCC (stereo not drawn) [Malaoxon, malaoxon] | 560 nM | 62 nM | 820 nM | 950 nM | – | – | – | –
4 | CCOP(=O)(OCC)Oc1ccc([N+](=O)[O-])cc1 [Paraoxon ethyl, paraoxon ethyl] | – | – | – | – | 490 nM | 55 nM | – | 2300 nM
